From BindingDB's records for PubMed 20126400 (University of Oklahoma, 2010) come the findings set out here.

Common to all, as to assay: Ray2010 Assay 74
For assay [1], the target named is D(1B) dopamine receptor (Homo sapiens, UniProt P21918). From the text:
(§1) Table S2 shows raw Ki data for the current study combined with data collected from the literature for the ten additional compounds.

Assay [2] addresses D(1A) dopamine receptor (Homo sapiens, UniProt P21728).
From the text: as §1

The target in assay [3] is Sodium-dependent noradrenaline transporter (Homo sapiens, UniProt P23975).
From the text: as §1

Assay [4] concerns the target Histamine H4 receptor (Homo sapiens, UniProt Q9H3N8).
From the text: as §1

The target in assay [5] is T1, Gamma-aminobutyric acid receptor subunit alpha-1 (Homo sapiens, UniProt P14867).
T1 sequence (P14867 whole entry): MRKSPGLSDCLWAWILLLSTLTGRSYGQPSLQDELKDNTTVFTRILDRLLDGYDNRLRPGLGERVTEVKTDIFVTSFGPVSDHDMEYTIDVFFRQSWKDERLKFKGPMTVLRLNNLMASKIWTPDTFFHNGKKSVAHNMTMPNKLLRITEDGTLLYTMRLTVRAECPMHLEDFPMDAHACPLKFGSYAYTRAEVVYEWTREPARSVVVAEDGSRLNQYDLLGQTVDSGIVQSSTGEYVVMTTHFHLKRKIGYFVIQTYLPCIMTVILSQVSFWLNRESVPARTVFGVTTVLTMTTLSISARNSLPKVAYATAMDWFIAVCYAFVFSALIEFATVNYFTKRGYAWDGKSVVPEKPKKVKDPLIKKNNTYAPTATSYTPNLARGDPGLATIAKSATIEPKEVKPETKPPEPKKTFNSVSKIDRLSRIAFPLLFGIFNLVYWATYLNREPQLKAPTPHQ
From the text: as §1

Assay [6] concerns the target T2, 5-hydroxytryptamine receptor 3A (Homo sapiens, UniProt P46098).
T2 sequence (P46098 whole entry): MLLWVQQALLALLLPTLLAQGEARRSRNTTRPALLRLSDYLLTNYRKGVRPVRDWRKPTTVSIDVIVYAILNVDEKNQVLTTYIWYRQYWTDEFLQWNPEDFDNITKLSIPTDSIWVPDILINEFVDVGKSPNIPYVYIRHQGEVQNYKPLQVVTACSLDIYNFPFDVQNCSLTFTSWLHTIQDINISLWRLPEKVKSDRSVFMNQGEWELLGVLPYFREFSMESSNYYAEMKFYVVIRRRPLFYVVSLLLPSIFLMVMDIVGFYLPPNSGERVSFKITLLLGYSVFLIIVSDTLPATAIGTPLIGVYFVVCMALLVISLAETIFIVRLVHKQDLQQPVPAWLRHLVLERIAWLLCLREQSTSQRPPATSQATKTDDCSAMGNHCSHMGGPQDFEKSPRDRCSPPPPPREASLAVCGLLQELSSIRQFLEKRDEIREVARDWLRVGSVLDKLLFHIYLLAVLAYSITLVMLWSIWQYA
From the text: as §1

In assay [7] the target is Glutamate receptor ionotropic, NMDA 2A (Homo sapiens, UniProt Q12879).
From the text: as §1

Assay [8] deals with Sodium-dependent dopamine transporter (Homo sapiens, UniProt Q01959).
From the text: as §1

The target of assay [9] is 5-hydroxytryptamine receptor 6 (Homo sapiens, UniProt P50406).
From the text: as §1

Assay [10] addresses 5-hydroxytryptamine receptor 1D (Homo sapiens, UniProt P28221).
From the text: as §1

In assay [11] the target is 5-hydroxytryptamine receptor 1E (Homo sapiens, UniProt P28566).
From the text: as §1

For assay [12], the target named is Delta-type opioid receptor (Homo sapiens, UniProt P41143).
From the text: as §1

Assay [13] deals with Sodium-dependent serotonin transporter (Homo sapiens, UniProt P31645).
From the text: as §1

Assay [14] deals with Beta-1 adrenergic receptor (Homo sapiens, UniProt P08588).
From the text: as §1

Assay [15] has as its target T3, Muscarinic acetylcholine receptor M2 (Homo sapiens, UniProt P08172).
T3 sequence (P08172 whole entry): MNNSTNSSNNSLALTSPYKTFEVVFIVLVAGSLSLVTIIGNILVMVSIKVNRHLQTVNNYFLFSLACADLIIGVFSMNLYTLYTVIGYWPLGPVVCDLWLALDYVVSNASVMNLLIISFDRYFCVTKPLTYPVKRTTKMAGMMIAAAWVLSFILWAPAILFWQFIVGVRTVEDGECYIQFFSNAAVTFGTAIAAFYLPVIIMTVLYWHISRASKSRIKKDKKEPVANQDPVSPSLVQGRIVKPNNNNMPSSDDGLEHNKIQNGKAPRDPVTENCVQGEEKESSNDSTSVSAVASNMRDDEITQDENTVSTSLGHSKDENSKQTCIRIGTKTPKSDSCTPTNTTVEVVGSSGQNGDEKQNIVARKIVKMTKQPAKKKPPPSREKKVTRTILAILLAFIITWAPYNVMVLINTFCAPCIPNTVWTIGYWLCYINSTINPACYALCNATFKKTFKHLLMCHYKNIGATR
From the text: as §1

Assay [16] deals with Mu-type opioid receptor (Homo sapiens, UniProt P35372).
From the text: as §1

In assay [17] the target is Histamine H2 receptor (Homo sapiens, UniProt P25021).
From the text: as §1

Assay [18] addresses Kappa-type opioid receptor (Homo sapiens, UniProt P41145).
From the text: as §1

The target of assay [19] is T4, D(4) dopamine receptor (Homo sapiens, UniProt P21917).
T4 sequence (P21917 whole entry): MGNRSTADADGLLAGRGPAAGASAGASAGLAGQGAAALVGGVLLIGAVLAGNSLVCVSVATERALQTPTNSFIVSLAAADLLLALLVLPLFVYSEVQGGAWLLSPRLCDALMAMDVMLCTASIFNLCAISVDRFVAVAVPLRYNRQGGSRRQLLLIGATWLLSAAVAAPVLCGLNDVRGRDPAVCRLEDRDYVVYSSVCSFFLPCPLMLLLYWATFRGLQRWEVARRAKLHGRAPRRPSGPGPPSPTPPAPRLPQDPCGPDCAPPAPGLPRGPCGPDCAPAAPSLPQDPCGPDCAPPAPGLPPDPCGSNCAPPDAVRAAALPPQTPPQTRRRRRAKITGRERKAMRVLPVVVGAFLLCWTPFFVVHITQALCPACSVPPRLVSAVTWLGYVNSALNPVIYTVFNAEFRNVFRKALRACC
From the text: as §1

Chain of Delta-type opioid receptor (P41143 whole entry): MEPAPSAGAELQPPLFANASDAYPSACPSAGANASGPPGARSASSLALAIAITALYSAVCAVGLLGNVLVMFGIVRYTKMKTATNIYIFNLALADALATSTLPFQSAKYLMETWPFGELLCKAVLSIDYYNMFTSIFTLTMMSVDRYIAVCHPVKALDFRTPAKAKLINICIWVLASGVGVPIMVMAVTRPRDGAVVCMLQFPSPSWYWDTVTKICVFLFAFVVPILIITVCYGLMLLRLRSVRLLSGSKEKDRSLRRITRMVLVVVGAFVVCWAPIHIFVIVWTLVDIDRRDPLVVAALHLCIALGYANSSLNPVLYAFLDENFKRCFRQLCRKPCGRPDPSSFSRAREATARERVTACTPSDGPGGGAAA
Chain of 5-hydroxytryptamine receptor 6 (P50406 whole entry): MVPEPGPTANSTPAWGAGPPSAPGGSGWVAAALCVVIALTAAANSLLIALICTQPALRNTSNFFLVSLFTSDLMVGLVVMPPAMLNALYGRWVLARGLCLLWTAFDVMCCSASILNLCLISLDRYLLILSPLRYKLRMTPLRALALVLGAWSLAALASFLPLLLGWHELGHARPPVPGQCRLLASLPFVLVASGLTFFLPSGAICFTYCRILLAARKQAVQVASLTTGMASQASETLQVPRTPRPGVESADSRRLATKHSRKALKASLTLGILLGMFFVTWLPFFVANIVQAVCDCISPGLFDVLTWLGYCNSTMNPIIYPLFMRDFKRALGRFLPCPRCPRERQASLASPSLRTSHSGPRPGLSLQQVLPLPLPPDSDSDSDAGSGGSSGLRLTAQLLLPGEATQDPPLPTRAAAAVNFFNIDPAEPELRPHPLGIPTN
Chain of Sodium-dependent noradrenaline transporter (P23975 whole entry): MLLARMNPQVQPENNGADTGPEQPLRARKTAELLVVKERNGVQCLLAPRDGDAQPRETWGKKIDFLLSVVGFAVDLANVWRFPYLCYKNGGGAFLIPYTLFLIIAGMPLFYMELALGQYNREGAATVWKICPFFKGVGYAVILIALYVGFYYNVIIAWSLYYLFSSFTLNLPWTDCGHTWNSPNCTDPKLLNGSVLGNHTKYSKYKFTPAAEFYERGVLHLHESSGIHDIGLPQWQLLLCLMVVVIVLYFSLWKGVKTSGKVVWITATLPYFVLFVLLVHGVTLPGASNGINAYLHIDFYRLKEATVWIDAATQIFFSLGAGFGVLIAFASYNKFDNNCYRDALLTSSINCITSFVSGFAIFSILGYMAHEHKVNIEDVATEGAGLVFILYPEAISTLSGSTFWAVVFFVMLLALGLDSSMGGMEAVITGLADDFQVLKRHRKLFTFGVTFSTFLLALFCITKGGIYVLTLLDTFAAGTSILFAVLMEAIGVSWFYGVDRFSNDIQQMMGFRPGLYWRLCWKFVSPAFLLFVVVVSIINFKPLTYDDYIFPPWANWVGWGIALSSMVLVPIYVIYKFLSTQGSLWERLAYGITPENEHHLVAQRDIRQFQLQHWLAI
Chain of 5-hydroxytryptamine receptor 1E (P28566 whole entry): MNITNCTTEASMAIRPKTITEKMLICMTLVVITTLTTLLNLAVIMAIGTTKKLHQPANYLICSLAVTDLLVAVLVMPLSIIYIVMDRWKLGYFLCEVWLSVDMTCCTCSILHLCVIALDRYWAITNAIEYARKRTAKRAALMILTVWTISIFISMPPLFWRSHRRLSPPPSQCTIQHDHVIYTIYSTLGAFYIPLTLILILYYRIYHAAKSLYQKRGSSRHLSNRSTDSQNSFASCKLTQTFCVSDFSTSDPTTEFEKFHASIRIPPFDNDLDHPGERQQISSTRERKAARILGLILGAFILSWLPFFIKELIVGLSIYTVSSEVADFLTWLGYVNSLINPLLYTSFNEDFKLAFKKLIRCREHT
Chain of Sodium-dependent serotonin transporter (P31645 whole entry): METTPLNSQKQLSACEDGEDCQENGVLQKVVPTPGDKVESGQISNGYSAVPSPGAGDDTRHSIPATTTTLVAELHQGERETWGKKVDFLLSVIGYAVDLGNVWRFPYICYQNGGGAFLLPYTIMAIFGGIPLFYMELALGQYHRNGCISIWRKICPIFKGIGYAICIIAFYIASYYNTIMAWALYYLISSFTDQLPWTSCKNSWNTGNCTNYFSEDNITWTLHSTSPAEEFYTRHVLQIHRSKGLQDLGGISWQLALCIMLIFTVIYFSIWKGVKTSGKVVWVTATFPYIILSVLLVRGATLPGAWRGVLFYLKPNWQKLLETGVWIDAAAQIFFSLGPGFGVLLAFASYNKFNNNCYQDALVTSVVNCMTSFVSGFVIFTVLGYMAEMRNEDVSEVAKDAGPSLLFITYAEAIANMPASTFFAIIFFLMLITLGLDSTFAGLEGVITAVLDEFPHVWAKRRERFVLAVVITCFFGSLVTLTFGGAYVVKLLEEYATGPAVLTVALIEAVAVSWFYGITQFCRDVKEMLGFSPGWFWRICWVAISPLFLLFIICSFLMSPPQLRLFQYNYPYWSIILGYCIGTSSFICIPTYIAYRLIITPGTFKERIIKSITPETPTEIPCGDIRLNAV
Chain of Mu-type opioid receptor (P35372 whole entry): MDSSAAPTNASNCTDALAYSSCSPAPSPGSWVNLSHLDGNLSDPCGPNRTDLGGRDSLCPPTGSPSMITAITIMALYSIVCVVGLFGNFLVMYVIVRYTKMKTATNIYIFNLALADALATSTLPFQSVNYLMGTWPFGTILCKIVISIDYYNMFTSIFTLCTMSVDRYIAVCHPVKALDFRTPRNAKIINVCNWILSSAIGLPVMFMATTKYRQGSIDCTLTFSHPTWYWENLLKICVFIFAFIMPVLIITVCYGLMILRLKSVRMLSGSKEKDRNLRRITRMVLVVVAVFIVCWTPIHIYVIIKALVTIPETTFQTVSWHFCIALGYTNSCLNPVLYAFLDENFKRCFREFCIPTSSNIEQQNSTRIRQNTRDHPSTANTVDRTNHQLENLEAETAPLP
Chain of 5-hydroxytryptamine receptor 1D (P28221 whole entry): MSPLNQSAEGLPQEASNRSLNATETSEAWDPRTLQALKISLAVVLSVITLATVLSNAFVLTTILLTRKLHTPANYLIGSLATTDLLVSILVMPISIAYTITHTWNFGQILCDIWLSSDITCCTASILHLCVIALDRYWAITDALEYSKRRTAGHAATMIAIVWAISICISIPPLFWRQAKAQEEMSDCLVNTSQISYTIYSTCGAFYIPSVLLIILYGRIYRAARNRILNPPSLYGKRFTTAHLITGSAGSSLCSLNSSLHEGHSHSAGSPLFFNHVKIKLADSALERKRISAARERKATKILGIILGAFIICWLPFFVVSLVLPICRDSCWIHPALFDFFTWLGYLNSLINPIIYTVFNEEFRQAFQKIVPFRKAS
Chain of Histamine H4 receptor (Q9H3N8 whole entry): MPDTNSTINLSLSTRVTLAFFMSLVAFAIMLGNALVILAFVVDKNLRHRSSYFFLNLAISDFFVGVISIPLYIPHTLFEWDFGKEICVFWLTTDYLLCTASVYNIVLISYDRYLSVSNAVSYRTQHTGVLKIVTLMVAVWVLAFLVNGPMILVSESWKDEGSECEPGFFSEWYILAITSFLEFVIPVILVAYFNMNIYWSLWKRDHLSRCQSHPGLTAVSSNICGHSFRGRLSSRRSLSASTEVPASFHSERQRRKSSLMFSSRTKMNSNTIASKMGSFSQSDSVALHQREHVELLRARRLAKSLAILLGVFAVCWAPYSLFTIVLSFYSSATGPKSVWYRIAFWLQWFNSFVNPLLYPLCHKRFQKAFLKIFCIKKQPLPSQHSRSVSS
Chain of Beta-1 adrenergic receptor (P08588 whole entry): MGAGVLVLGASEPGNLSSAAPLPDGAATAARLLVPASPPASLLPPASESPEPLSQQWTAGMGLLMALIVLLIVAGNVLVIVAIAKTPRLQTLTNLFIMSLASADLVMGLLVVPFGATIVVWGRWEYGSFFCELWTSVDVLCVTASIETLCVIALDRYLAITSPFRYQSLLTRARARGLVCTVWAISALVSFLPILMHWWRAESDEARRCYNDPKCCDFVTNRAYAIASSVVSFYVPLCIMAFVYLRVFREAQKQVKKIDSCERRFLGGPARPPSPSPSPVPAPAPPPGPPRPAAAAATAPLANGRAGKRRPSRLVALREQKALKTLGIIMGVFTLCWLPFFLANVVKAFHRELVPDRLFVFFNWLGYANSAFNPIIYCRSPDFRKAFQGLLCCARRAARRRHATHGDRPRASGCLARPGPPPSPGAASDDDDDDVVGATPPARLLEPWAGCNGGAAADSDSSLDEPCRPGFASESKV
Chain of Sodium-dependent dopamine transporter (Q01959 whole entry): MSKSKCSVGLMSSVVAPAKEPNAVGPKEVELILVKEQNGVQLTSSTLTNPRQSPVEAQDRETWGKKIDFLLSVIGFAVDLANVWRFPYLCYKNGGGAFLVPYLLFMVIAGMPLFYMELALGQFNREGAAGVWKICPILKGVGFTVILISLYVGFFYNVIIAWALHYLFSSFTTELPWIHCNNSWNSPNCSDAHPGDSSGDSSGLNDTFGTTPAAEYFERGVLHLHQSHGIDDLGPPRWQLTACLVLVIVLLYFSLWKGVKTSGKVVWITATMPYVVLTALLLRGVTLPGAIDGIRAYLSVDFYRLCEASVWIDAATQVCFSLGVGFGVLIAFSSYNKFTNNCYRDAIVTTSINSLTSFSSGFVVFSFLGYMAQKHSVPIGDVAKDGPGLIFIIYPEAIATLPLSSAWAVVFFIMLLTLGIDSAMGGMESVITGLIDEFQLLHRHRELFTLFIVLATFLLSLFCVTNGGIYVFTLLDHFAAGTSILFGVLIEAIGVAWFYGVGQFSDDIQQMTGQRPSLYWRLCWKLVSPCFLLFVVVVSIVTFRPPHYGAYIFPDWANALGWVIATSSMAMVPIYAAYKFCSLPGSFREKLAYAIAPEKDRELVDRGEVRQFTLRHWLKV

In the case of `CN(C)CCc1c[nH]c2cc(F)ccc12` [6-f-dmt], the inhibition constant Ki is 6.29 µM in assay [1]; 0.547 µM in assay [2]; > 10 µM in assay [3]; > 10 µM in assay [4]; > 10 µM in assay [5]; > 10 µM in [6]. Also, the Ki in assay [7] was > 10 µM; in [8], > 10 µM; in [9] it was 0.0256 µM; in assay [10], 0.0554 µM; in assay [11], 0.461 µM; in assay [12], > 10 µM. Also, the Ki is 0.145 µM in assay [13]; > 10 µM in assay [14]; > 10 µM in [15]; > 10 µM in [16]; 0.925 µM in assay [17]; > 10 µM in assay [18]. The Ki in assay [19] is 1.45 µM.

Consider `CCCN(CCC)CCc1c[nH]c2ccccc12` [dpt], for which the inhibitory constant (Ki) in assay [1], in assay [2], in [3], in [4], in [5] and in [6] was > 10 µM throughout. Further, the inhibition constant (Ki) was > 10 µM in [7]; 1.5 µM in assay [8]; 4.54 µM in assay [9]; 0.619 µM in [10]; 2.34 µM in [11]; > 10 µM in assay [12]. In addition, the inhibition constant (Ki) is 0.157 µM in assay [13]; > 10 µM in assay [14]; > 10 µM in assay [15]; > 10 µM in [16]; > 10 µM in [17]; > 10 µM in assay [18]. The compound also registered an inhibitory constant (Ki) in [19] of 2.01 µM.

`CCSc1cc(OC)c(CCN)cc1OC` [2C-T-2]: the Ki in [1], in assay [2], in [3], in [4], in [5] and in assay [6] was > 10 µM each time. The Ki was > 10 µM in [7]; > 10 µM in assay [8]; 1.36 µM in assay [9]; 0.0859 µM in assay [10]; 0.415 µM in [11]; > 10 µM in [12]. In addition, the inhibitory constant (Ki) in assay [13] was > 10 µM; in assay [14] it was 9.2 µM; in assay [15], > 10 µM; in assay [16] it was > 10 µM; in assay [17], > 10 µM; in assay [18], > 10 µM. The inhibition constant (Ki) in assay [19] was > 10 µM.

Consider `CCOc1cc(OC)c(CC(C)N)cc1OC` (stereo not given), for which the inhibitory constant (Ki) in assay [1], in assay [2], in assay [3], in [4], in [5] and in assay [6] was > 10 µM throughout. The Ki in assay [7], in assay [8], in [9], in assay [10], in assay [11] and in assay [12] was > 10 µM throughout. Also, the Ki in assay [13], in assay [14], in assay [15], in [16], in assay [17] and in assay [18] was > 10 µM in each case. For the same compound, the inhibition constant (Ki) in assay [19] is > 10 µM.

With `CCc1cc(OC)c(CC(C)N)cc1OC` (stereo not given), the Ki in assay [1], in [2], in assay [3], in [4], in assay [5] and in assay [6] was > 10 µM each time. Further, the Ki is > 10 µM in assay [7]; > 10 µM in assay [8]; > 10 µM in assay [9]; 6.62 µM in [10]; 3.55 µM in assay [11]; > 10 µM in assay [12]. The Ki in assay [13] is > 10 µM; in assay [14], 5.72 µM; in assay [15], > 10 µM; in assay [16] it was > 10 µM; in [17], > 10 µM; in assay [18], > 10 µM. Also, in assay [19], the Ki is > 10 µM.

What is called Ki is the dissociation constant of the complex between target and ligand, obtained from inhibition or displacement. A lower Ki goes with higher affinity.
